# Measured values: the supplement of paper PMC4862054
# Tested on: BT-549
# Experiment: drug sensitivity score (DSS), CellTiter-Blue viability (DSS (AUC-based score)); higher = stronger viability inhibition; extreme values may be limits of the assay
# Details: incubation time: 72 h
# Protocol: (§1)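 DSRT with the CellTiter-Blue (resazurin reduction) viability readout, fluorescence 560/590 nm, 72 h incubation. Plates were normalised to DMSO and benzethonium chloride controls. DSS is computed from the area under the fitted dose-response curve (5 or 9 concentrations).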
row,Compound,drug sensitivity score
1,Nc1ccccc1NC(=O)c1ccc(CNc2nccc(-c3cccnc3)n2)cc1 [Mocetinostat],7.6
2,COc1nc(N)nc2c1ncn2[C@@H]1O[C@H](CO)[C@@H](O)[C@@H]1O [Nelarabine],0
3,Cc1ccc(Nc2nccc(N(C)c3ccc4c(C)n(C)nc4c3)n2)cc1S(N)(=O)=O [Pazopanib],3.13
4,O=C(CCBr)N1CCN(C(=O)CCBr)CC1 [Pipobroman],0
5,c1cc(CN2CCCNCCNCCCNCC2)ccc1CN1CCCNCCNCCCNCC1 [Plerixafor],0
6,C[C@]12C=CC(=O)C=C1CC[C@@H]1[C@@H]2[C@@H](O)C[C@@]2(C)[C@H]1CC[C@]2(O)C(=O)CO [Prednisolone],0
7,CC[C@@]1(O)C(=O)OCc2c1cc1n(c2=O)Cc2cc3c(CN(C)C)c(O)ccc3nc2-1 [Topotecan],4.7

# Tested on: MDA-MB-468
# Experiment: as above
# Details: incubation time: 72 h
# Protocol: as §1
row,Compound,drug sensitivity score
1,Nc1ccccc1NC(=O)c1ccc(CNc2nccc(-c3cccnc3)n2)cc1 [Mocetinostat],7.64
2,COc1nc(N)nc2c1ncn2[C@@H]1O[C@H](CO)[C@@H](O)[C@@H]1O [Nelarabine],0
3,Cc1ccc(Nc2nccc(N(C)c3ccc4c(C)n(C)nc4c3)n2)cc1S(N)(=O)=O [Pazopanib],0
4,O=C(CCBr)N1CCN(C(=O)CCBr)CC1 [Pipobroman],0
5,c1cc(CN2CCCNCCNCCCNCC2)ccc1CN1CCCNCCNCCCNCC1 [Plerixafor],0
6,C[C@]12C=CC(=O)C=C1CC[C@@H]1[C@@H]2[C@@H](O)C[C@@]2(C)[C@H]1CC[C@]2(O)C(=O)CO [Prednisolone],0
7,CC[C@@]1(O)C(=O)OCc2c1cc1n(c2=O)Cc2cc3c(CN(C)C)c(O)ccc3nc2-1 [Topotecan],11.6

# Tested on: HDQ-P1
# Experiment: as above
# Details: incubation time: 72 h
# Protocol: as §1
row,Compound,drug sensitivity score
1,Nc1ccccc1NC(=O)c1ccc(CNc2nccc(-c3cccnc3)n2)cc1 [Mocetinostat],2.86
2,COc1nc(N)nc2c1ncn2[C@@H]1O[C@H](CO)[C@@H](O)[C@@H]1O [Nelarabine],0
3,Cc1ccc(Nc2nccc(N(C)c3ccc4c(C)n(C)nc4c3)n2)cc1S(N)(=O)=O [Pazopanib],1.38
4,O=C(CCBr)N1CCN(C(=O)CCBr)CC1 [Pipobroman],0
5,c1cc(CN2CCCNCCNCCCNCC2)ccc1CN1CCCNCCNCCCNCC1 [Plerixafor],0
6,C[C@]12C=CC(=O)C=C1CC[C@@H]1[C@@H]2[C@@H](O)C[C@@]2(C)[C@H]1CC[C@]2(O)C(=O)CO [Prednisolone],0
7,CC[C@@]1(O)C(=O)OCc2c1cc1n(c2=O)Cc2cc3c(CN(C)C)c(O)ccc3nc2-1 [Topotecan],0.903

# Tested on: HCC1143
# Experiment: as above
# Details: incubation time: 72 h
# Protocol: as §1
row,Compound,drug sensitivity score
1,Nc1ccccc1NC(=O)c1ccc(CNc2nccc(-c3cccnc3)n2)cc1 [Mocetinostat],6.77
2,COc1nc(N)nc2c1ncn2[C@@H]1O[C@H](CO)[C@@H](O)[C@@H]1O [Nelarabine],0
3,Cc1ccc(Nc2nccc(N(C)c3ccc4c(C)n(C)nc4c3)n2)cc1S(N)(=O)=O [Pazopanib],0
4,O=C(CCBr)N1CCN(C(=O)CCBr)CC1 [Pipobroman],0
5,c1cc(CN2CCCNCCNCCCNCC2)ccc1CN1CCCNCCNCCCNCC1 [Plerixafor],0
6,C[C@]12C=CC(=O)C=C1CC[C@@H]1[C@@H]2[C@@H](O)C[C@@]2(C)[C@H]1CC[C@]2(O)C(=O)CO [Prednisolone],0
7,CC[C@@]1(O)C(=O)OCc2c1cc1n(c2=O)Cc2cc3c(CN(C)C)c(O)ccc3nc2-1 [Topotecan],5.56

# Tested on: BT-474
# Experiment: as above
# Details: incubation time: 72 h
# Protocol: as §1
row,Compound,drug sensitivity score
1,Nc1ccccc1NC(=O)c1ccc(CNc2nccc(-c3cccnc3)n2)cc1 [Mocetinostat],2.91
2,COc1nc(N)nc2c1ncn2[C@@H]1O[C@H](CO)[C@@H](O)[C@@H]1O [Nelarabine],0
3,Cc1ccc(Nc2nccc(N(C)c3ccc4c(C)n(C)nc4c3)n2)cc1S(N)(=O)=O [Pazopanib],0
4,O=C(CCBr)N1CCN(C(=O)CCBr)CC1 [Pipobroman],0
5,c1cc(CN2CCCNCCNCCCNCC2)ccc1CN1CCCNCCNCCCNCC1 [Plerixafor],0
6,C[C@]12C=CC(=O)C=C1CC[C@@H]1[C@@H]2[C@@H](O)C[C@@]2(C)[C@H]1CC[C@]2(O)C(=O)CO [Prednisolone],0
7,CC[C@@]1(O)C(=O)OCc2c1cc1n(c2=O)Cc2cc3c(CN(C)C)c(O)ccc3nc2-1 [Topotecan],0

# Tested on: MFM-223
# Experiment: as above
# Details: incubation time: 72 h
# Protocol: as §1
row,Compound,drug sensitivity score
1,Nc1ccccc1NC(=O)c1ccc(CNc2nccc(-c3cccnc3)n2)cc1 [Mocetinostat],3.47
2,COc1nc(N)nc2c1ncn2[C@@H]1O[C@H](CO)[C@@H](O)[C@@H]1O [Nelarabine],0
3,Cc1ccc(Nc2nccc(N(C)c3ccc4c(C)n(C)nc4c3)n2)cc1S(N)(=O)=O [Pazopanib],11.6
4,O=C(CCBr)N1CCN(C(=O)CCBr)CC1 [Pipobroman],3.19
5,c1cc(CN2CCCNCCNCCCNCC2)ccc1CN1CCCNCCNCCCNCC1 [Plerixafor],0
6,C[C@]12C=CC(=O)C=C1CC[C@@H]1[C@@H]2[C@@H](O)C[C@@]2(C)[C@H]1CC[C@]2(O)C(=O)CO [Prednisolone],0
7,CC[C@@]1(O)C(=O)OCc2c1cc1n(c2=O)Cc2cc3c(CN(C)C)c(O)ccc3nc2-1 [Topotecan],0

# Tested on: MDA-MB-436
# Experiment: as above
# Details: incubation time: 72 h
# Protocol: as §1
row,Compound,drug sensitivity score
1,Nc1ccccc1NC(=O)c1ccc(CNc2nccc(-c3cccnc3)n2)cc1 [Mocetinostat],9.06
2,COc1nc(N)nc2c1ncn2[C@@H]1O[C@H](CO)[C@@H](O)[C@@H]1O [Nelarabine],0
3,Cc1ccc(Nc2nccc(N(C)c3ccc4c(C)n(C)nc4c3)n2)cc1S(N)(=O)=O [Pazopanib],4.09
4,O=C(CCBr)N1CCN(C(=O)CCBr)CC1 [Pipobroman],0
5,c1cc(CN2CCCNCCNCCCNCC2)ccc1CN1CCCNCCNCCCNCC1 [Plerixafor],0
6,C[C@]12C=CC(=O)C=C1CC[C@@H]1[C@@H]2[C@@H](O)C[C@@]2(C)[C@H]1CC[C@]2(O)C(=O)CO [Prednisolone],0
7,CC[C@@]1(O)C(=O)OCc2c1cc1n(c2=O)Cc2cc3c(CN(C)C)c(O)ccc3nc2-1 [Topotecan],6.23

# Tested on: Hs578T
# Experiment: as above
# Details: incubation time: 72 h
# Protocol: as §1
row,Compound,drug sensitivity score
1,Nc1ccccc1NC(=O)c1ccc(CNc2nccc(-c3cccnc3)n2)cc1 [Mocetinostat],6.43
2,COc1nc(N)nc2c1ncn2[C@@H]1O[C@H](CO)[C@@H](O)[C@@H]1O [Nelarabine],0
3,Cc1ccc(Nc2nccc(N(C)c3ccc4c(C)n(C)nc4c3)n2)cc1S(N)(=O)=O [Pazopanib],0
4,O=C(CCBr)N1CCN(C(=O)CCBr)CC1 [Pipobroman],0
5,c1cc(CN2CCCNCCNCCCNCC2)ccc1CN1CCCNCCNCCCNCC1 [Plerixafor],0
6,C[C@]12C=CC(=O)C=C1CC[C@@H]1[C@@H]2[C@@H](O)C[C@@]2(C)[C@H]1CC[C@]2(O)C(=O)CO [Prednisolone],0
7,CC[C@@]1(O)C(=O)OCc2c1cc1n(c2=O)Cc2cc3c(CN(C)C)c(O)ccc3nc2-1 [Topotecan],0

# Tested on: MDA-MB-231
# Experiment: as above
# Details: incubation time: 72 h
# Protocol: as §1
row,Compound,drug sensitivity score
1,Nc1ccccc1NC(=O)c1ccc(CNc2nccc(-c3cccnc3)n2)cc1 [Mocetinostat],6.93
2,COc1nc(N)nc2c1ncn2[C@@H]1O[C@H](CO)[C@@H](O)[C@@H]1O [Nelarabine],0
3,Cc1ccc(Nc2nccc(N(C)c3ccc4c(C)n(C)nc4c3)n2)cc1S(N)(=O)=O [Pazopanib],0
4,O=C(CCBr)N1CCN(C(=O)CCBr)CC1 [Pipobroman],0
5,c1cc(CN2CCCNCCNCCCNCC2)ccc1CN1CCCNCCNCCCNCC1 [Plerixafor],0
6,C[C@]12C=CC(=O)C=C1CC[C@@H]1[C@@H]2[C@@H](O)C[C@@]2(C)[C@H]1CC[C@]2(O)C(=O)CO [Prednisolone],0
7,CC[C@@]1(O)C(=O)OCc2c1cc1n(c2=O)Cc2cc3c(CN(C)C)c(O)ccc3nc2-1 [Topotecan],3.58

# Tested on: HCC1937
# Experiment: as above
# Details: incubation time: 72 h
# Protocol: as §1
row,Compound,drug sensitivity score
1,Nc1ccccc1NC(=O)c1ccc(CNc2nccc(-c3cccnc3)n2)cc1 [Mocetinostat],7.41
2,COc1nc(N)nc2c1ncn2[C@@H]1O[C@H](CO)[C@@H](O)[C@@H]1O [Nelarabine],0
3,Cc1ccc(Nc2nccc(N(C)c3ccc4c(C)n(C)nc4c3)n2)cc1S(N)(=O)=O [Pazopanib],0
4,O=C(CCBr)N1CCN(C(=O)CCBr)CC1 [Pipobroman],0
5,c1cc(CN2CCCNCCNCCCNCC2)ccc1CN1CCCNCCNCCCNCC1 [Plerixafor],0
